Converted amounts (≈) assume the structure as drawn.
Key:
[1] = Solubility of the compound at pH 7; format: physicochemical; settings: buffer
[2] = target: Serine/threonine-protein kinase PLK2 (Homo sapiens, UniProt Q9NYY3); assay: Inhibition of PLK2
[3] = target: Cyclin-dependent kinase 2/cyclin A (Homo sapiens, UniProt P24941); assay: Inhibition of CDK2/Cyclin A; format: protein-complex assay
A2780 = assay: cells; settings: Homo sapiens, A2780, 72 h
[4] = target: Serine/threonine-protein kinase PLK1 (Homo sapiens, UniProt P53350)
Sequence of Serine/threonine-protein kinase PLK1 (P53350 whole entry): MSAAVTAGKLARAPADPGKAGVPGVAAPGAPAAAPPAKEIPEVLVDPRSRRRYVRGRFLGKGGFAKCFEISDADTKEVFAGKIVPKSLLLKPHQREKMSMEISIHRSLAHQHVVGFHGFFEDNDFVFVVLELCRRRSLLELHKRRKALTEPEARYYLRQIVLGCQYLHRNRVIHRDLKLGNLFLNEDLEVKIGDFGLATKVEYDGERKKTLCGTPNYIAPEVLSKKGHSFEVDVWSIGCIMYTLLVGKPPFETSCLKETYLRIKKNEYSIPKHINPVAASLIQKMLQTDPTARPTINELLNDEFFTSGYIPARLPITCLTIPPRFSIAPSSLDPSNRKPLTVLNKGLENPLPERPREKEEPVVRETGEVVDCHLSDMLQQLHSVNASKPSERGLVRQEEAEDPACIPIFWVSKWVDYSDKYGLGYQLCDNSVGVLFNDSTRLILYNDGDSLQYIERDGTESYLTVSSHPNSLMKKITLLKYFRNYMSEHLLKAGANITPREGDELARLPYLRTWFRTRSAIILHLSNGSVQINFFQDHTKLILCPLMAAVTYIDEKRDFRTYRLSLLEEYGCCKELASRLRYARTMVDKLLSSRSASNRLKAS

[5] = target: Serine/threonine-protein kinase PLK3 (Homo sapiens, UniProt Q9H4B4); assay: Inhibition of PLK3
Sequence of Serine/threonine-protein kinase PLK3 (Q9H4B4 whole entry): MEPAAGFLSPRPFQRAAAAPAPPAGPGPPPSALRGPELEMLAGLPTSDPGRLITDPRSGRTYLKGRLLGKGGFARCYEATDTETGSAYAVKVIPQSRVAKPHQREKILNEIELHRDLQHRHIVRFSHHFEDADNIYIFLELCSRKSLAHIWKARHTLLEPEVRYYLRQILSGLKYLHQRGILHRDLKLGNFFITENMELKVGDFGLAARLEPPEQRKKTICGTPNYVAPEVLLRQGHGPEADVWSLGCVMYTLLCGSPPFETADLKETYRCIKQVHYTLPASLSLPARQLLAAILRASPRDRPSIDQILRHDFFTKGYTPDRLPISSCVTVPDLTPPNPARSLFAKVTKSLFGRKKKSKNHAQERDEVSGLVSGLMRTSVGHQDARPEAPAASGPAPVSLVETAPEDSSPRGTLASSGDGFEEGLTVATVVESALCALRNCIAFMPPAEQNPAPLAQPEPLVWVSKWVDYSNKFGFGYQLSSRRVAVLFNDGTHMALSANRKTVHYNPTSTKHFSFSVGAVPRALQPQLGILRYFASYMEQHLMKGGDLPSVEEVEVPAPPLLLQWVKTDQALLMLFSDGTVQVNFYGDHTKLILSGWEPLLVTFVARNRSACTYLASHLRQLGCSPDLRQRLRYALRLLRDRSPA

[6] = Clearance in CD1 mouse at 10 mg/kg, iv administered as single dose by LC/MS/MS analysis; format: ADME, organism-based; parameters: dose 10 mg/kg, route intravenous; settings: in vivo
[7] = target: Serine/threonine-protein kinase Nek6 (Homo sapiens, UniProt Q9HC98); assay: Inhibition of NEK6
Sequence of Serine/threonine-protein kinase Nek6 (Q9HC98 whole entry): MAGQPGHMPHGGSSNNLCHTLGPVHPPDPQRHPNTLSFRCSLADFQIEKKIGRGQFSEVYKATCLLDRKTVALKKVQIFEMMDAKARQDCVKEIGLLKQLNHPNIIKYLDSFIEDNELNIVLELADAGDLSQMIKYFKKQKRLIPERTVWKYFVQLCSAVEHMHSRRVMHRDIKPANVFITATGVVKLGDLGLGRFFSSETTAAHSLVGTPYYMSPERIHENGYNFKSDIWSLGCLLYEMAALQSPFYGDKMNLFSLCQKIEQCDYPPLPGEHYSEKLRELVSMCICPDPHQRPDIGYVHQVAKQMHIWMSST

[8] = Volume of distribution at steady state in CD1 mouse at 10 mg/kg, iv administered as single dose by LC/MS/MS analysis; format: ADME, organism-based; parameters: dose 10 mg/kg, route intravenous; settings: in vivo, read-out: Vdss
[9] = Permeability of the compound by PAMPA; format: ADME
[10] = Inhibition of casein kinase 2
[11] = Cmax in CD1 mouse at 10 mg/kg, po administered as single dose by LC/MS/MS analysis; format: ADME, organism-based; parameters: dose 10 mg/kg, route oral; settings: in vivo
[12] = Solubility of the compound at 105 Tween 80; format: physicochemical
[13] = Oral bioavailability in CD1 mouse at 10 mg/kg administered as single dose by LC/MS/MS analysis; format: ADME, organism-based; settings: in vivo
[14] = Inhibition of PDGFR
[15] = target: ALK tyrosine kinase receptor (Homo sapiens, UniProt Q9UM73); assay: Inhibition of ALK
Sequence of ALK tyrosine kinase receptor (Q9UM73 whole entry): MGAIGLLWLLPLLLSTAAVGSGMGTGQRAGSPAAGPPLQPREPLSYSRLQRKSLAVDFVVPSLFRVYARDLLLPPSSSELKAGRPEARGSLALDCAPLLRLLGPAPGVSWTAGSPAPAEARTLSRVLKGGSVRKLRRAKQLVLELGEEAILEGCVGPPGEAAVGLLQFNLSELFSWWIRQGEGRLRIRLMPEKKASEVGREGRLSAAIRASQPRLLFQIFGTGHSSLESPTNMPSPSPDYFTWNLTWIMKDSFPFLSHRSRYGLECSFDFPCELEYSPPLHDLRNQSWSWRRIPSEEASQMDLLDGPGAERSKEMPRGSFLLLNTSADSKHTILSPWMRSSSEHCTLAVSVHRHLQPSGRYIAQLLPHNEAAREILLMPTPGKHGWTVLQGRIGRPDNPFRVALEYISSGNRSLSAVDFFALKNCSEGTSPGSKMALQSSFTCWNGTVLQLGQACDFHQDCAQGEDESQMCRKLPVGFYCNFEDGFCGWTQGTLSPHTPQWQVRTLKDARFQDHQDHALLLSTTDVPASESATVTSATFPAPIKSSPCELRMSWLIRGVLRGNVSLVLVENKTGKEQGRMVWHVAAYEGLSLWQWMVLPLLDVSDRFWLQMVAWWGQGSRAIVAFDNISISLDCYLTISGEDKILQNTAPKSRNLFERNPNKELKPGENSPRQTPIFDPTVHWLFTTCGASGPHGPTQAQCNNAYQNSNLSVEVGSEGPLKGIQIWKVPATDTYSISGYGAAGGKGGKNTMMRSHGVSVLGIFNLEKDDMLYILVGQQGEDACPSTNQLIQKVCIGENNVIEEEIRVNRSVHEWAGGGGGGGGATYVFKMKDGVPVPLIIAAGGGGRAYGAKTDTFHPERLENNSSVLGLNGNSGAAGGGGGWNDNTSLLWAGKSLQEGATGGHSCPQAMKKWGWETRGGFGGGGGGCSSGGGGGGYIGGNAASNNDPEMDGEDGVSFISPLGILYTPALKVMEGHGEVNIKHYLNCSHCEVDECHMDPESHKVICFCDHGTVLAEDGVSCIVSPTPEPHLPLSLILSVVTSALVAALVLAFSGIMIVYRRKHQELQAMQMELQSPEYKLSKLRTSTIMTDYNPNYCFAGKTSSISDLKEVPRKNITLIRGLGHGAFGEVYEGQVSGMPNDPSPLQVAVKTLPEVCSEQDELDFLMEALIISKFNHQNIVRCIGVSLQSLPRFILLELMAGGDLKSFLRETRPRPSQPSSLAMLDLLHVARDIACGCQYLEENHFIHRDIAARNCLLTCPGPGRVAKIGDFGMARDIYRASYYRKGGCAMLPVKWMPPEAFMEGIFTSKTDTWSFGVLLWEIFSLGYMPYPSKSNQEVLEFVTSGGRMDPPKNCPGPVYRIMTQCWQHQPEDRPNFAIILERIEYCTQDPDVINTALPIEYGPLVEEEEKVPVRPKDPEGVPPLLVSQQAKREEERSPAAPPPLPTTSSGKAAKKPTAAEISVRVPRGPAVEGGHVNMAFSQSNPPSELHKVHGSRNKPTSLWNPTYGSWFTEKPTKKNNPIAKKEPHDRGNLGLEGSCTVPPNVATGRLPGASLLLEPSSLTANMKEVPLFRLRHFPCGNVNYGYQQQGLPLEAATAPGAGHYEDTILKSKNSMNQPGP

[16] = target: T1, Receptor-type tyrosine-protein kinase FLT3 (Homo sapiens, UniProt P36888); assay: Inhibition of FLT3
T1 sequence (P36888 whole entry): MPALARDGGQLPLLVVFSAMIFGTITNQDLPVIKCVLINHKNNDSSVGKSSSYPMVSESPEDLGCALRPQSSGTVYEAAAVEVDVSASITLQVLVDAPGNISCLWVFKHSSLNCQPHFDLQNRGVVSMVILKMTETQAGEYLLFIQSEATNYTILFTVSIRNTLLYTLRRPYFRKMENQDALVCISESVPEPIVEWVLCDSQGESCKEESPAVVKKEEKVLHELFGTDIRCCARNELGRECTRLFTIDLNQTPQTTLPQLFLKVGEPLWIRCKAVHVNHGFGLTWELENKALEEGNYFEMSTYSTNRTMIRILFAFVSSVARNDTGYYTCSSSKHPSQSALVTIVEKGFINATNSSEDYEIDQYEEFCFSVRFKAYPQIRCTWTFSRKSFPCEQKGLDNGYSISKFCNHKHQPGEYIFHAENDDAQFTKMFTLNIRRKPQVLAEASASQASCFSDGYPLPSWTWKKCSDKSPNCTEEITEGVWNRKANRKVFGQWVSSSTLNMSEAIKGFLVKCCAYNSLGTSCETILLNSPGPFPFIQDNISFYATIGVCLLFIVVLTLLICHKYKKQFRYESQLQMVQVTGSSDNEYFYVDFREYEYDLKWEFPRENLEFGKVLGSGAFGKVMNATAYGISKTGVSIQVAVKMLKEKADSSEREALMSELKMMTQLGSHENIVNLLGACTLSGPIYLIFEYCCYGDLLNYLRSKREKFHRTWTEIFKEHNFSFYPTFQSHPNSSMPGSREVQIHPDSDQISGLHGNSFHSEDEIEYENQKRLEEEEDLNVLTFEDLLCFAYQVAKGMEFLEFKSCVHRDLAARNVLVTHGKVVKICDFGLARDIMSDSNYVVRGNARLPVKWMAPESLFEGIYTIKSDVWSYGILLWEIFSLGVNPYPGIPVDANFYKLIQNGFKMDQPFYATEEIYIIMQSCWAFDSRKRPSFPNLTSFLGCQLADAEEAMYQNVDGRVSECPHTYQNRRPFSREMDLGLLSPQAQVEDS

[17] = Intrinsic clearance in human liver microsomes; format: ADME, Microsome
[18] = Terminal half life in CD1 mouse at 10 mg/kg, iv administered as single dose by LC/MS/MS analysis; format: ADME, organism-based; parameters: dose 10 mg/kg, route intravenous; settings: in vivo, read-out: beta t1/2 (converted)
[19] = AUC (0 to infinity) in CD1 mouse at 10 mg/kg, po administered as single dose by LC/MS/MS analysis; format: ADME, organism-based; parameters: time infinity, dose 10 mg/kg, route oral; settings: plasma
[20] = AUC (0 to infinity) in CD1 mouse at 10 mg/kg, iv administered as single dose by LC/MS/MS analysis; format: ADME, organism-based; parameters: time infinity, dose 10 mg/kg, route intravenous; settings: plasma
[21] = Terminal half life in CD1 mouse at 10 mg/kg, po administered as single dose by LC/MS/MS analysis; format: ADME, organism-based; parameters: dose 10 mg/kg, route oral; settings: in vivo, read-out: beta t1/2 (converted)

Sequence of Serine/threonine-protein kinase PLK2 (Q9NYY3 whole entry): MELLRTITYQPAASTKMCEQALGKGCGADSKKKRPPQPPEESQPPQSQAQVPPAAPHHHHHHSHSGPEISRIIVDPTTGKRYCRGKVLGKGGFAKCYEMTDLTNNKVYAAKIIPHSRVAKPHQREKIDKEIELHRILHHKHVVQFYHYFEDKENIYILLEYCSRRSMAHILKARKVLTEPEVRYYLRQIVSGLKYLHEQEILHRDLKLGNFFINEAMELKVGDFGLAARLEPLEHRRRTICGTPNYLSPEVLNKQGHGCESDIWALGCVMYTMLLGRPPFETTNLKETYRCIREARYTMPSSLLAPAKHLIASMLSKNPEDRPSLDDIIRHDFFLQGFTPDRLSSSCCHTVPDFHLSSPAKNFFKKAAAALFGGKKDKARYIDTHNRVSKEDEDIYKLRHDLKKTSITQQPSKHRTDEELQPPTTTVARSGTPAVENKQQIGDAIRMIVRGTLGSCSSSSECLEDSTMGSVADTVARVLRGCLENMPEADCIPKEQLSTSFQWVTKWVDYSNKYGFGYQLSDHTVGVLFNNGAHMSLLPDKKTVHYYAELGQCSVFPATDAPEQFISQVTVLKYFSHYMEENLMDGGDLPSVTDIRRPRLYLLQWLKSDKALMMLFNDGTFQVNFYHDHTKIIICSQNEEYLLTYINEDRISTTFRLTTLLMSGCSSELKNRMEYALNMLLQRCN

Structure (SMILES)	solubility [1]	IC50 [2]	IC50 [3]	IC50 (A2780)	IC50 [4]	IC50 [5]	other results
CCN1CCN(c2ccc(OC(F)(F)F)c(Nc3ncc4c(n3)-c3c(c(C(N)=O)nn3C)CC4)c2)CC1	33 µM (≈ 17 µg/mL)	3.39 µM	> 10 µM	0.034 µM	–	–	–
CCn1nc(C(N)=O)c2c1-c1nc(Nc3cc(N4CCN(C)CC4)ccc3OC(F)(F)F)ncc1CC2	21 µM (≈ 10.8 µg/mL)	> 10 µM	> 10 µM	0.011 µM	0.006 µM	> 10 µM	–
CN1CCCC1CCNc1ccc(OC(F)(F)F)c(Nc2ncc3c(n2)-c2c(c(C(N)=O)nn2C)CC3)c1 (stereo not drawn)	157 µM (≈ 83.3 µg/mL)	0.429 µM	0.969 µM	2.56 µM	–	–	–
CN1C(C)(C)CC(Nc2ccc(OC(F)(F)F)c(Nc3ncc4c(n3)-c3c(c(C(N)=O)nn3C)CC4)c2)CC1(C)C	147 µM (≈ 84.2 µg/mL)	> 10 µM	3.02 µM	1.75 µM	0.964 µM	> 10 µM	–
Cn1nc(C(N)=O)c2c1-c1nc(Nc3cc(N4CC[N+](C)([O-])CC4)ccc3OC(F)(F)F)ncc1CC2	> 225 µM	> 10 µM	> 10 µM	0.782 µM	–	–	–
Cn1nc(C(N)=O)c2c1-c1nc(Nc3cc(N)ccc3OC(F)(F)F)ncc1CC2	31 µM (≈ 13 µg/mL)	1.28 µM	1.18 µM	1.07 µM	–	–	–
CN1CCN(c2ccc(OC(F)(F)F)c(Nc3ncc4c(n3)-c3c(c(C(N)=O)nn3CCCl)CC4)c2)CC1	9 µM (≈ 4.96 µg/mL)	> 10 µM	2.01 µM	0.031 µM	–	> 10 µM	–
CN1CCN(c2ccc(OC(F)(F)F)c(Nc3ncc4c(n3)-c3c(c(C(N)=O)nn3CCF)CC4)c2)CC1	18 µM (≈ 9.62 µg/mL)	> 10 µM	> 10 µM	0.014 µM	0.004 µM	> 10 µM	clearance [6]: 40.3 mL/min/kg; IC50 [7]: > 10 µM; Vd [8]: 1.53 L/kg; Papp [9]: 50 ×10⁻⁶ cm/s; IC50 [10]: 0.134 µM; Cmax [11]: 260 nM; solubility [12]: 2100 µg/mL (≈ 3.93 mM); bioavailability [13]: 2%; IC50 [14]: > 10 µM; IC50 [15]: > 10 µM; IC50 [16]: 0.216 µM; CLint scaled [17]: 56.1 mL/min/kg; half-life [18]: 44.4 min; AUC(0-inf) [19]: 0.192 µM·h; AUC(0-inf) [20]: 10.2 µM·h
Cn1nc(C(N)=O)c2c1-c1nc(Nc3ccccc3OC(F)(F)F)ncc1CC2	< 1 µM	0.206 µM	1.76 µM	6.41 µM	0.117 µM	0.032 µM	–
CN1CCN(c2ccc(OC(F)(F)F)c(Nc3ncc4c(n3)-c3[nH]nc(C(N)=O)c3CC4)c2)CC1	12 µM (≈ 5.86 µg/mL)	> 10 µM	> 10 µM	0.093 µM	0.004 µM	> 10 µM	–
Cn1nc(C(N)=O)c2c1-c1nc(Nc3cc(N4CCN(C(=O)N5CCNCC5)CC4)ccc3OC(F)(F)F)ncc1CC2	85 µM (≈ 51.1 µg/mL)	0.19 µM	0.622 µM	0.538 µM	–	–	–
Cn1nc(C(N)=O)c2c1-c1nc(Nc3cc(NC4CCNC4)ccc3OC(F)(F)F)ncc1CC2 (stereo not drawn)	171 µM (≈ 83.5 µg/mL)	0.762 µM	0.414 µM	2.22 µM	–	–	–
Cn1nc(C(N)=O)c2c1-c1nc(Nc3cc(N4CCN(C(=O)OC(C)(C)C)CC4)ccc3OC(F)(F)F)ncc1CC2	–	0.768 µM	1.13 µM	1.29 µM	–	–	–
Cn1nc(C(N)=O)c2c1-c1nc(Nc3cc([N+]4([O-])CC[N+](C)([O-])CC4)ccc3OC(F)(F)F)ncc1CC2 (stereo not drawn)	48 µM (≈ 25.7 µg/mL)	> 10 µM	> 10 µM	> 10 µM	2.68 µM	> 10 µM	–
Cn1nc(C(N)=O)c2c1-c1nc(Nc3cc(N4CCNCC4)ccc3OC(F)(F)F)ncc1CC2	114 µM (≈ 55.7 µg/mL)	> 10 µM	> 10 µM	0.03 µM	–	1.43 µM	IC50 [7]: 0.595 µM; Papp [9]: 7.22 ×10⁻⁶ cm/s; IC50 [10]: 0.059 µM; solubility [12]: 1100 µg/mL (≈ 2.25 mM); IC50 [14]: > 10 µM; IC50 [15]: > 10 µM; IC50 [16]: 0.194 µM; CLint scaled [17]: 6.9 mL/min/kg
COCCn1nc(C(N)=O)c2c1-c1nc(Nc3cc(N4CCN(C)CC4)ccc3OC(F)(F)F)ncc1CC2	136 µM (≈ 74.3 µg/mL)	> 10 µM	> 10 µM	0.075 µM	0.015 µM	> 10 µM	–
C=Cn1nc(C(N)=O)c2c1-c1nc(Nc3cc(N4CCN(C)CC4)ccc3OC(F)(F)F)ncc1CC2	8 µM (≈ 4.12 µg/mL)	0.335 µM	> 10 µM	0.008 µM	–	0.182 µM	clearance [6]: 57.3 mL/min/kg; IC50 [7]: 0.336 µM; half-life [21]: 155 min; Vd [8]: 2.58 L/kg; Papp [9]: 19.6 ×10⁻⁶ cm/s; IC50 [10]: 0.069 µM; Cmax [11]: 610 nM; solubility [12]: > 3200 µg/mL; bioavailability [13]: 29%; IC50 [14]: 1.46 µM; IC50 [15]: 2.38 µM; IC50 [16]: 0.226 µM; CLint scaled [17]: 28.8 mL/min/kg; half-life [18]: 53.4 min; AUC(0-inf) [19]: 2.15 µM·h; AUC(0-inf) [20]: 5.37 µM·h
CN1CCN(c2ccc(OC(F)(F)F)c(Nc3ncc4c(n3)-c3c(c(C(N)=O)nn3C(c3ccccc3)(c3ccccc3)c3ccccc3)CC4)c2)CC1	< 1 µM	–	> 10 µM	2.1 µM	> 10 µM	–	–
CN1CCC(Nc2ccc(OC(F)(F)F)c(Nc3ncc4c(n3)-c3c(c(C(N)=O)nn3C)CC4)c2)CC1	> 225 µM	3.42 µM	1.02 µM	1.09 µM	–	–	–
Cn1nc(C(N)=O)c2c1-c1nc(Nc3cc(N4CCC(N5CCCC5)CC4)ccc3OC(F)(F)F)ncc1CC2	133 µM (≈ 74 µg/mL)	> 10 µM	> 10 µM	0.583 µM	0.033 µM	> 10 µM	–
CN1CCCN(c2ccc(OC(F)(F)F)c(Nc3ncc4c(n3)-c3c(c(C(N)=O)nn3C)CC4)c2)CC1	95 µM (≈ 49.1 µg/mL)	> 10 µM	> 10 µM	0.941 µM	0.025 µM	> 10 µM	–

From ChEMBL document CHEMBL1268971, “4,5-Dihydro-1H-pyrazolo[4,3-h]quinazolines as potent and selective Polo-like kinase 1 (PLK1) inhibitors” (Bioorg Med Chem Lett, 2010)
